According to patent US20170176436A1, “METHODS (AMACR)” (UNIVERSITY OF BATH, priority 2014, published 2017):
Values belong to the molecule of their own block, whether it stands above or below them.

Assays:
[1] = biological target: T1, human recombinant AMACR 1A (Homo sapiens, UniProt Q9UHK6); test: Colorimetric assay for AMACR, 96-well plate, absorbance at 354 nm; format: biochemical
T1 construct: made in house
T1 sequence (Q9UHK6 1-382): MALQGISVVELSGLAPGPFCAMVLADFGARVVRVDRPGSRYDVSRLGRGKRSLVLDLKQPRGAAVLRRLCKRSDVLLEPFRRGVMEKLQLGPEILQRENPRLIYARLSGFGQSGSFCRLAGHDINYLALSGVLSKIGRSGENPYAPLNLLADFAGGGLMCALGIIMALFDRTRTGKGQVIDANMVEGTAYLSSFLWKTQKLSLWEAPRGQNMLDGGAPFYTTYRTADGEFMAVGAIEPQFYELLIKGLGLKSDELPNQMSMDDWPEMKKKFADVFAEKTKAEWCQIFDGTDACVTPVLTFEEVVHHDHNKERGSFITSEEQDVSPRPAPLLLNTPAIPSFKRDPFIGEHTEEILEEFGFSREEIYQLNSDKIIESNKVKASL
Procedure: Based on this elimination reaction, a colorimetric assay was developed. […] 2,4-dintrophenol was chosen as the leaving group as the pKa of the acid is similar to that of HF.
The elimination reaction is shown in Reaction Scheme 2 below:
The above assay was transferred into a 96-well plate format with the extent of reaction monitored by absorbance at 354 nm. The reaction was carried out in Na2HPO4—NaOH, pH 7.4 in a total volume of 100 μL containing 8.05 μg (0.17 nmoles) of human recombinant AMACR 1A.
The kinetics assay was carried out in a 96 well plate. Substrate stock solutions (at 2× the final concentration) were prepared by serial dilution in a total volume of 150 μL in phosphate buffer (as already described). This solution (50 μL) was transferred into […], such that three identical wells were prepared. The reaction was initiated by adding a 2× stock solution of enzyme (50 μL per well) to the substrate, mixing and measuring the change in absorbance at 354 nm over a 15 minute time course, with data collected every 60 seconds. The reaction was conducted at ambient room temperature, ca. 25° C. The final concentrations of substrate (in the assay, after adding the enzyme) were: 256.3, 180.9, 113.9, 75.9, 50.6, 33.8, 22.5, 15.0 μM.
Rates were determined by plotting the absorbance vs. time in Microsoft Excel. The initial rate was used before the rate starts to reduce due to substrate depletion and other reasons. The rate in absorbance units/min was derived by fitting a straight line to the points and determining the slope from the y=mx+c equation.
The data was converted into nmol/min/mg using the extinction coefficient,^8 the pathlength (calculated by the plate-reader based on the volume of the reaction; 0.33 cm), and the amount of enzyme determined by UV-visible spectroscopy.^1 Kinetic constants were derived using SigmaPlot 12 with the enzyme kinetics macro function. Fitting assumed a single substrate per active site, two active sites per dimer (one active sites per protein molecule), with three repeats of each rate. […] Kinetic data was also calculated using the Direct Linear Plot^3,4 A similar method (with a different enzyme) has also been described.^10

[2] = biological target: T2, Human AMACR (Homo sapiens, UniProt Q9UHK6); test: AMACR-catalysed elimination reaction of 3-fluoro-2-methylacyl-CoA esters, monitored by 1H and 19F NMR; format: biochemical
T2 construct: inferred only from purification by metal-chelate chromatography; made in house; host or cells: E. coli Rosetta2 (DE3)
T2 sequence (Q9UHK6 1-382): T1 sequence (Q9UHK6 1-382)
Procedure: (§1) Human AMACR was expressed in E. coli Rosetta2 (DE3) at 22° C. overnight shaking at 220 r.p.m.^1 Cells (˜2 g) were lysed using the ‘one shot’ in ˜30 mL buffer supplemented with 250u benzonase (Novagen) and stirred with 1.5% (w/v) N-lauroyl-sarcosine at 4° C. for 1 hour. Following centrifugation, enzyme was purified by metal-chelate chromatography, dialysed into 20 mM NaH2PO4—NaOH, pH 7.4 and stored at −80° C.^1,2
(§2) Assays were conducted in buffer containing ^2H2O and 100 μM acyl-CoA substrate as previously described, with negative controls contain heat-inactivated enzyme. ±-Fenoprofenoyl-CoA or 2-methyldecanoyl-CoA was used as known substrates.^1,2 Assays were quenched by heating to 50° C. for 10 minutes before ^1H NMR analysis (500.13 MHz). Conversion of substrates was quantified by conversion of the 2-Me doublet at ca. 1.0 p.p.m. into a singlet.^1,2 Kinetic data was analysed as previously described^1,2 and parameters were obtained using SigmaPlot 12 with the Direct Linear Plot^3,4 and non-linear fitting of Michaelis-Menten parameters.
(§3) The 3S and 3R stereoisomers of the 3-fluoro-2-methylacyl-CoA esters were then incubated with AMACR and the reaction was monitored by ^1H and ^19F NMR. Interconversion of 3S and 3R by chiral inversion was expected to be observed. […] The synthetic product compound was produced from the E-acid, which had the alkene proton at 6.92 p.p.m., whilst the Z-isomer has an alkene proton at 6.09 p.p.m. in the ^1H NMR spectrum. The presence of fluoride was observed as a characteristic signal at −120 p.p.m. in the ^19F spectrum. Increasing amounts of the unsaturated product compound and inorganic fluoride were observed upon incubation of either 3S or 3R with AMACR for longer times. This reaction was not observed in negative controls containing heat-inactivated enzyme. […] This observed irreversibility of the elimination reaction probably results from the high levels of hydration of the fluoride anion.

[3] = biological target: T1, human recombinant AMACR 1A; test: Measurement of inhibitor potency using the elimination assay (1H NMR); format: biochemical
Procedure: Assays were performed as previously described in a total volume of […] in the presence of ^2H2O. using human recombinant AMACR 1A^2. In the following table inhibitor at 100 μM was incubated with enzyme for 10 minutes at room temperature. The reaction was initiated by addition of a stock solution of substrate (2S,3R-3-fluoro-2-methyldecanoyl-CoA) to a final concentration of 100 μM, followed by incubation at 30° C. for 1 hour. The reaction was terminated by heating at ca. 55° C. for 10 minutes. The cooled reaction mixture analysed by ^1H NMR by the appearance of the unsaturated product peak at ca. 1.75 ppm and comparison to the residual substrate peak at 1.1 ppm.^5 Assays were compared to a positive control (no inhibitor) and conversion levels are corrected for levels in negative controls (boiled enzyme). The data in the table is the average of two […] repeats.
Similar assays were also conducted where inhibitor and substrate were added to the enzyme simultaneously.

[4] = biological target: T2, Human AMACR; test: AMACR chiral inversion reaction of a known substrate, 1H NMR assay; format: biochemical
Procedure: as §1, §2

[5] = substrate: CCCCCCCCC(C)C(=O)SCCNC(=O)CCNC(=O)[C@H](O)C(C)(C)COP(=O)(O)OP(=O)(O)OC[C@H]1O[C@@H](n2cnc3c(N)ncnc32)[C@H](O)[C@@H]1OP(=O)(O)O; test: as above; format: biochemical, human; settings: other: chiral inversion reaction; pH 7.4
Procedure: as §1, §2

[6] = substrate: CCCCCCC[C@@H](F)[C@@H](C)C(=O)SCCNC(=O)CCNC(=O)[C@H](O)C(C)(C)COP(=O)(O)OP(=O)(O)OC[C@H]1O[C@@H](n2cnc3c(N)ncnc32)[C@H](O)[C@@H]1OP(=O)(O)O; test: AMACR-catalysed elimination reaction of 3-fluoro-2-methylacyl-CoA esters, monitored by 1H and 19F NMR; format: biochemical, human; settings: other: elimination reaction; Direct Linear Plot; 1H NMR; pH 7.4
Procedure: as §1, §2, §3

[7] = elimination of 2,4-dinitrophenoxide, pH 7.4, ca. 25° C., absorbance 354 nm
[8] = elimination reaction, Direct Linear Plot, 1H NMR
[9] = inhibitor 100 μM incubated with enzyme 10 minutes at room temperature before substrate, enzyme 0.06 mg/mL, substrate 2S,3R-3-fluoro-2-methyldecanoyl-CoA 100 μM, 30° C. 1 hour
[10] = inhibitor and substrate added to the enzyme simultaneously, enzyme 0.12 mg/mL

Molecule: CC(COc1ccc([N+](=O)[O-])cc1[N+](=O)[O-])C(=O)SCCNC(=O)CCNC(=O)[C@H](O)C(C)(C)COP(=O)(O)OP(=O)(O)OC[C@H]1O[C@@H](n2cnc3c(N)ncnc32)[C@H](O)[C@@H]1OP(=O)(O)O (mixture of isomers) [colorimetric substrate, racemic 3-(2,4-dinitrophenoxy)-2-methyl-propanoyl-CoA]
conversion efficiency relative to anti-3-fluoro-2-methyldecanoyl-CoA, as judged by kcat/Km [1]: ~35% | colour produced on incubation with active AMACR ([1]; absent in negative controls using heat-inactivated enzyme): intense yellow colour | Km [1, 7]: 18 µM | Vmax [1, 7]: 27.61 nmol/min/mg | kcat [1, 7]: 0.023 s⁻¹

Molecule: CCCCCCC[C@@H](F)[C@H](C)C(=O)SCCNC(=O)CCNC(=O)[C@H](O)C(C)(C)COP(=O)(O)OP(=O)(O)OC[C@H]1O[C@@H](n2cnc3c(N)ncnc32)[C@H](O)[C@@H]1OP(=O)(O)O [Compound 5, (2S,3R)-3-Fluoro-2-methyldecanoic-CoA]
Km [2, 8]: 21 µM | Vmax [2, 8]: 96.5 nmol·min^−1·mg polypeptide^−1 | kcat [2, 8]: 0.0758 s⁻¹

Molecule: CCCCCCC[C@@H](F)[C@@H](C)C(=O)SCCNC(=O)CCNC(=O)[C@H](O)C(C)(C)COP(=O)(O)OP(=O)(O)OC[C@H]1O[C@@H](n2cnc3c(N)ncnc32)[C@H](O)[C@@H]1OP(=O)(O)O [Compound 11, (2R,3R)-3-Fluoro-2-methyldecanoyl-CoA]
Vmax [2, 8]: ~50.6 nmol·min^−1·mg polypeptide^−1 | background conversion in negative controls (non-enzymatic elimination) ([2]; negative controls with heat-inactivated enzyme): significant background conversion

Molecule: CC(C(=O)SCCNC(=O)CCNC(=O)C(O)C(C)(C)COP(=O)(O)OP(=O)(O)OCC1OC(n2cnc3c(N)ncnc32)C(O)C1OP(=O)(O)O)c1cccc(Oc2ccccc2)c1 (stereo not shown) [Fenoprofenoyl-CoA]
Average reduction in conversion [3, 9]: 14.1%

Molecule: CC(C(=O)SCCNC(=O)CCNC(=O)C(O)C(C)(C)COP(=O)(O)OP(=O)(O)OCC1OC(n2cnc3c(N)ncnc32)C(O)C1OP(=O)(O)O)c1ccc(-c2ccccc2)c(F)c1 (stereo not shown) [Flurbiprofenoyl-CoA]
Average reduction in conversion [3, 9]: 3.5%

Molecule: CC(C)Cc1ccc(C(C)C(=O)SCCNC(=O)CCNC(=O)C(O)C(C)(C)COP(=O)(O)OP(=O)(O)OCC2OC(n3cnc4c(N)ncnc43)C(O)C2OP(=O)(O)O)cc1 (stereo not shown) [Ibuprofenoyl-CoA]
Average reduction in conversion [3, 9]: 14.5% | Average reduction in conversion [3, 10]: 11%

B1: Human AMACR (Homo sapiens) (protein)
chain: T1 sequence (Q9UHK6 1-382)
notes: inferred only from purification by metal-chelate chromatography; made in house; host or cells: E. coli Rosetta2 (DE3)
Km [5]: 277 µM | kcat [5]: 0.0310 s⁻¹ | kcat/Km [5]: 112 M⁻¹ s⁻¹ | Km [6]: 40 µM | kcat [6]: 0.0397 s⁻¹ | kcat/Km [6]: 993 M⁻¹ s⁻¹

Now from value to molecule:

Average reduction in conversion [3, 9]: 4.5%
Molecule: CC(C(=O)SCCNC(=O)CCNC(=O)C(O)C(C)(C)COP(=O)(O)OP(=O)(O)OCC1OC(n2cnc3c(N)ncnc32)C(O)C1OP(=O)(O)O)c1cccc(C(=O)c2ccccc2)c1 (stereo not shown) [Ketoprofenoyl-CoA]

Average reduction in conversion [3, 9]: 4.7%
Molecule: COc1ccc2cc(C(C)C(=O)SCCNC(=O)CCNC(=O)C(O)C(C)(C)COP(=O)(O)OP(=O)(O)OCC3OC(n4cnc5c(N)ncnc54)C(O)C3OP(=O)(O)O)ccc2c1 (stereo not shown) [Naproxenoyl-CoA]

Average reduction in conversion [3, 10]: 13.6%
Molecule: CCCCCCCC[C@@H](C)C(=O)SCCNC(=O)CCNC(=O)[C@H](O)C(C)(C)COP(=O)(O)OP(=O)(O)OC[C@H]1O[C@@H](n2cnc3c(N)ncnc32)[C@H](O)[C@@H]1OP(=O)(O)O [R-2-methyldecanoyl-CoA]

Average reduction in conversion [3, 10]: 7.2% | Vmax [4]: 39.3 nmol·min^−1·mg^−1 polypeptide
Molecule: CCCCCCCCC(C)C(=O)SCCNC(=O)CCNC(=O)[C@H](O)C(C)(C)COP(=O)(O)OP(=O)(O)OC[C@H]1O[C@@H](n2cnc3c(N)ncnc32)[C@H](O)[C@@H]1OP(=O)(O)O (stereo partly shown) [S-2-methyldecanoyl-CoA]
